In ChEMBL document CHEMBL4251692, “Dual GSK-3β/AChE Inhibitors as a New Strategy for Multitargeting Anti-Alzheimer's Disease Drug Discovery” (ACS Med Chem Lett, 2018):
Activity calls are given as the source filed them. No cut-off for these calls is given here.

Tests used:
Cholinesterase [1] = target: Cholinesterase (Homo sapiens, UniProt P06276); assay: Inhibition of human BuChE using butyrylthiocholine iodide as substrate incubated for 20 mins followed by substrate addition measured after 2 mins by Ellman's method
[2] = target: Glycogen synthase kinase-3 beta (Homo sapiens, UniProt P49841); assay: Inhibition of recombinant human full length N-terminal GST-tagged GSK-3beta expressed in Sf9 insect cells using prephosphorylated polypeptide as substrate after 30 mins by kinase-Glo reagent based luminescence assay
Homo sapiens = species: Homo sapiens; assay: Selectivity index, ratio of IC50 for human AChE to IC50 for human BuChE
SH-SY5Y = assay: Cytotoxicity against human SH-SY5Y cells assessed as reduction in cell viability after 48 hrs by MTT assay; type: cell-based
Mus musculus = assay: Cognition enhancing effect in scopolamine-induced ICR mouse assessed as decrease in distance to target at 15 mg/kg, po administered 30 mins prior to scopolamine injection for 10 consecutive days followed by testing on day 11 post 30 mins scopolamine treatment by Morris water maze test; type: functional, organism-based
Acetylcholinesterase [3] = target: T1, Acetylcholinesterase (Homo sapiens, UniProt P22303); assay: Inhibition of human AChE using acetylthiocholine iodide as substrate incubated for 20 mins followed by substrate addition measured after 2 mins by Ellman's method
[4] = target: Glycogen synthase kinase-3 beta (Mus musculus) (UniProt Q9WV60); assay: Inhibition of GSK-3beta in mouse N2A cells assessed as reduction in tau hyperphosphorylation at Ser396 residues at 10 uM after 6 hrs by Western blot analysis; type: cell-based
N2a = assay: Effect on total tau protein level in mouse N2A cells at 10 to 30 uM after 6 hrs by Western blot analysis; type: cell-based
HepG2 = assay: Cytotoxicity against human HepG2 cells assessed as reduction in cell viability after 24 hrs by MTT assay; type: cell-based; details: HepG2, 24 h
Acetylcholinesterase [5] = target: T1, Acetylcholinesterase; assay: Mixed/non-competitive inhibition of human AChE using varying levels of acetylthiocholine iodide as substrate at 1 to 20 nM incubated for 20 mins by Lineweaver-Burk plot analysis
Cholinesterase [6] = target: Cholinesterase (Equus caballus, UniProt P81908); assay: Inhibition of horse serum BuChE using butyrylthiocholine iodide as substrate incubated for 5 mins followed by substrate addition measured after 2 mins by Ellman's method
Cholinesterase (Equus caballus, UniProt P81908), sequence (P81908 whole entry): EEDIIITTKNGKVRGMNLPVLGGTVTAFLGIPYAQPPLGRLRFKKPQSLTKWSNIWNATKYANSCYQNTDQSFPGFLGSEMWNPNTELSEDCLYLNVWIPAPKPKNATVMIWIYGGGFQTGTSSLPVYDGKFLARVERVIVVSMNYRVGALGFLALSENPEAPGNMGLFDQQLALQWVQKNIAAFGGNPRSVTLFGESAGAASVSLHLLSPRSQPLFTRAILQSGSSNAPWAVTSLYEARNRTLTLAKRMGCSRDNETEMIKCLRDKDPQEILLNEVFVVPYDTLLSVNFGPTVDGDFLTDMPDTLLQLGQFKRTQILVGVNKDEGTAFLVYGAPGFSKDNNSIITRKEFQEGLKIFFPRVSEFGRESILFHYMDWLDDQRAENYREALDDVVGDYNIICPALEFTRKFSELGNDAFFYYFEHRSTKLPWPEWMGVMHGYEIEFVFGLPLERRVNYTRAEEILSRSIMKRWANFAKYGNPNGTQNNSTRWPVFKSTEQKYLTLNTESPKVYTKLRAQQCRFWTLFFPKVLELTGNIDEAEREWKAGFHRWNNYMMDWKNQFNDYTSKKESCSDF

T1 sequence (P22303 whole entry): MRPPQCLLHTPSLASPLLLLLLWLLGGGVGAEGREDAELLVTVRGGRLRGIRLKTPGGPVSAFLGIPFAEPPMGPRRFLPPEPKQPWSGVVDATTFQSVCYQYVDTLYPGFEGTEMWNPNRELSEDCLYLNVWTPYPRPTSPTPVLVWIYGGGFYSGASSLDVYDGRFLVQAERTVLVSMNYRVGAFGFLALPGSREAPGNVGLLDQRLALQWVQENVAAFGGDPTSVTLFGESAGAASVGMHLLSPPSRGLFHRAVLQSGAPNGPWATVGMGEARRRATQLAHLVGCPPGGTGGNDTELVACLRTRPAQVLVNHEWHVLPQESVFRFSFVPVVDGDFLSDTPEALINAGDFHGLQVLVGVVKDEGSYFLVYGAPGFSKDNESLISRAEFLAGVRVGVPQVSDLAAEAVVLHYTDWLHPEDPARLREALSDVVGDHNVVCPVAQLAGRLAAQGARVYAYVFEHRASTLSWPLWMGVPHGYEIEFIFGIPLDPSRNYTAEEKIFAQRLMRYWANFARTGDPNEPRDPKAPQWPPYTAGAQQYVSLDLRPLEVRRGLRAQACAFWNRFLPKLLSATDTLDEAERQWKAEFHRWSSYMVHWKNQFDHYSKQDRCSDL
Cholinesterase (Homo sapiens, UniProt P06276), sequence (P06276 whole entry): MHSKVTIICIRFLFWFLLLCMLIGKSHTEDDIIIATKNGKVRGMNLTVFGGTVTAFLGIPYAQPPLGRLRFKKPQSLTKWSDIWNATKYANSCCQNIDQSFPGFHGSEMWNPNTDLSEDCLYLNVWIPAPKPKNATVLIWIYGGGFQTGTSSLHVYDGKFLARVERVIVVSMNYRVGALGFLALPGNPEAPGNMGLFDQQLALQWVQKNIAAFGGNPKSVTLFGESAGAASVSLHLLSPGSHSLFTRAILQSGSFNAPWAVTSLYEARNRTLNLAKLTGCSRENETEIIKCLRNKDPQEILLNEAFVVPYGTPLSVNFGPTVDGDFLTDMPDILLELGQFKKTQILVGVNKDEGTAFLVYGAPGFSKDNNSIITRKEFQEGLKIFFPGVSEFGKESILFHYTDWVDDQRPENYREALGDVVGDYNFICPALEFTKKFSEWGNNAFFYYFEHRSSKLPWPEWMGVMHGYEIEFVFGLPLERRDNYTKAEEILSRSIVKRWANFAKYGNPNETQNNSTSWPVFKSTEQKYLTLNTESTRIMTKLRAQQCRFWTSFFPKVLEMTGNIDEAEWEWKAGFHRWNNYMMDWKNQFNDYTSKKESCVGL
Glycogen synthase kinase-3 beta, sequence (P49841 whole entry): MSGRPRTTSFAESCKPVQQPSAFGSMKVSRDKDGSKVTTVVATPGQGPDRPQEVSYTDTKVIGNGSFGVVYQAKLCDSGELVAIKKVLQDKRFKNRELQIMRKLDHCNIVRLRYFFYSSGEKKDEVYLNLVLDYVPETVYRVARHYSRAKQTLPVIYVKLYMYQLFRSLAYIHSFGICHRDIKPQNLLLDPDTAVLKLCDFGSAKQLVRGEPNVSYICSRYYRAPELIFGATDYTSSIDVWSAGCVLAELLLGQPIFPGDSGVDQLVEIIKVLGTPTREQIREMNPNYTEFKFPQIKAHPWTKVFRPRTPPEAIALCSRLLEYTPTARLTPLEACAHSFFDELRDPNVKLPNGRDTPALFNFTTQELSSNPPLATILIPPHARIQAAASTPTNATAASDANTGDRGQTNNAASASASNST
Glycogen synthase kinase-3 beta (Mus musculus), sequence (Q9WV60 whole entry, looked up): as the sequence (P49841 whole entry) above, with T390P, T392A, A400T, T402A counted along it

Compound	IC50 (Cholinesterase [1])	IC50 [2]	Ratio IC50 (Homo sapiens)	IC50 (SH-SY5Y)	Activity (Mus musculus)	IC50 (Acetylcholinesterase [3])	inhibition [4]	Activity (N2a)	IC50 (HepG2)	inhibition (Acetylcholinesterase [5])	IC50 (Cholinesterase [6])
COC(=O)c1sc(-c2ccnc(NC(=O)C3CC3)c2)nc1OCCNc1c2c(nc3ccccc13)CCCC2	0.028 µM	0.099 µM	4.6	13 µM	Active	0.13 µM	–	–	–	–	–
COc1nc(-c2ccnc(NC(=O)C3CC3)c2)sc1C(=O)NCCNc1c2c(nc3ccccc13)CCCC2	0.051 µM	0.068 µM	–	6.3 µM	–	0.0063 µM	–	–	–	–	–
NC(=O)c1sc(-c2ccnc(NC(=O)C3CC3)c2)nc1OCCNc1c2c(nc3ccccc13)CCCC2	0.15 µM	0.034 µM	–	19 µM	–	0.3 µM	–	–	–	–	–
COc1nc(-c2ccnc(NC(=O)C3CC3)c2)sc1C(=O)NCCCCCCNc1c2c(nc3ccccc13)CCCC2	0.1 µM	0.018 µM	–	30 µM	Active	0.022 µM	–	–	–	–	–
COc1nc(-c2ccnc(NC(=O)C3CC3)c2)sc1C(=O)NCCCNc1c2c(nc3ccccc13)CCCC2	0.26 µM	0.066 µM	–	18 µM	Active	0.0064 µM	Active	Non-Toxic	35 µM	Active	–
O=C(O)c1sc(-c2ccnc(NC(=O)C3CC3)c2)nc1OCCNc1c2c(nc3ccccc13)CCCC2	0.45 µM	0.27 µM	–	21 µM	–	0.58 µM	–	–	–	–	–
COc1nc(-c2ccnc(NC(=O)C3CC3)c2)sc1C(=O)NCCNc1c2c(nc3cc(Cl)ccc13)CCCC2	–	0.063 µM	–	2.3 µM	–	0.0021 µM	–	–	–	–	0.41 µM
CCOC(=O)c1sc(-c2ccnc(NC(=O)C3CC3)c2)nc1OCCNc1c2c(nc3ccccc13)CCCC2	0.61 µM	0.18 µM	–	7.1 µM	–	0.31 µM	–	–	–	–	–
COc1nc(-c2ccnc(NC(=O)C3CC3)c2)sc1C(=O)NCCCNc1c2c(nc3cc(Cl)ccc13)CCCC2	–	0.098 µM	–	3.1 µM	–	0.0036 µM	–	–	–	–	0.29 µM
COc1ccc2nc3c(c(NCCNC(=O)c4sc(-c5ccnc(NC(=O)C6CC6)c5)nc4OC)c2c1)CCCC3	–	0.083 µM	–	8.9 µM	–	0.023 µM	–	–	–	–	2.1 µM
COc1ccc2nc3c(c(NCCCNC(=O)c4sc(-c5ccnc(NC(=O)C6CC6)c5)nc4OC)c2c1)CCCC3	–	0.065 µM	–	2.9 µM	–	0.038 µM	–	–	–	–	2.3 µM
